Read-outs that look alike come from different tables or passages of the source. Blank lines part the entries; values can stand above or below the compound they belong to.
Tests used:
[1] = biological target: T1, pyrimidine nucleoside phosphorylase (Rattus norvegicus, UniProt F7F0D5); assay: Inhibition of pyrimidine nucleoside phosphorylase activity in rat small intestine homogenate (decomposition of 5-fluoro-2'-deoxyuridine); type: biochemical, SD-strain rat
T1 construct: small intestine homogenates of an SD-strain male rat and a male beagle; from tissue; host or cells: small intestine homogenate of SD-strain male rat
Description: (§1) Inhibitory effects of 1-[(2-hydroxyethoxy)methyl]-5-methyluracil, 1-[(2-hydroxyethoxy)methyl]-5-fluoro-uracil, 1-[(2-hydroxyethoxy)methyl]-5-bromouracil on pyrimidine nucleoside phosphorylase activity in the small intestine homogenates of an SD-strain male rat and a male beagle were assayed with a lowering in decomposition rate of 5-fluoro-2'-deoxyuridine (concentration: 0.025 mM) and compared with the same effects of thymidine and deoxyuridine.

[2] = Inhibition of pyrimidine nucleoside phosphorylase activity in beagle small intestine homogenate (decomposition of 5-fluoro-2'-deoxyuridine); type: biochemical; conditions: dog, small intestine homogenate, pH 7
Description: as §1

[3] = system: pyrimidine nucleoside phosphorylase; assay: as above; type: biochemical; conditions: for Half-life of 5-fluoro-2'-deoxyuridine in presence of inhibitor / Inhibitory percentage: 0.4% w/v beagle small intestine homogenate, pH 7.0, 37° C.
Description: as §1

[4] = system: mouse leukemia L1210; assay: Antitumor effect on mouse leukemia L1210 (increase in life span), oral administration; type: in vivo; conditions: days 1, 3, 5
Description: The antitumor effect for mouse leukemia L1210 by a simultaneous oral administration of the compounds of the present invention 3',5'-didodecanoyl-5-fluoro-2'-deoxyuridine and 1-[[2-(octadecanoyloxy)ethoxy]methyl]-5-methyluracil was compared with those of (a) 5-fluoro-2'-deoxyuridine alone, (b) 3',5'-didodecanoyl-5-fluoro-2'-deoxyuridine alone, and (c) a simultaneous oral administration of 3',5'-didodecanoyl-5-fluoro-2'-deoxyuridine and 1-[(2-hydroxyethoxy)methyl]-5-methyluracil.
10^5 ascite tumor cells of mouse leukemia L1210 7 days after transplantation were transplanted intraperioneally into mouse (.male.8 weeks, Ca 25-26 g, 5 mice/group) and provided for experiments. 24 hours after transplantation of the tumor cells, the pharmaceuticals were administered orally three times on day 1, day 3 and day 5.
The antitumor effect of the pharmaceuticals were shown by the increase in life span (ILS) of the group administered with pharamaceuticals relative to the control group (with no pharmaceutical administered) (line extension %).

[5] = Lipid solubility: retention time in reversed phase HPLC (Lichrosorb RP-18); type: physicochemical; conditions: RP-18 4.0 × 130 mm, 1.2 ml/min, index of lipid solubility
Description: The retention time of the compounds of the present invention in reversed phase system high performance liquid chromatograph (Lichrosorb RP-18 column) was measured in two kinds of solvent systems.

[6] = Hydrophilic properties: retention time in normal phase HPLC (Nucleosil 5CN); type: physicochemical; conditions: n-hexane:ethanol = 88:12, 1.2 ml/min, index of hydrophilic properties
Description: The retention times of the compounds of the present invention in normal phase system high performance liquid chromatograph (Nucleosil) 5 CN column were measured.

[7] = Enzymatic hydrolyzability in rat duodenum epithelial homogenate; type: in vitro ADME; conditions: rat duodenum epithelial homogenate 1% w/v, pH 7.0, 37° C.
Description: The hydrolysis rates of the compounds of the present invention were measured at 37° C. in rat duodenum epithelial homogenate (1%, w/v; pH 7.0).

[8] = system: pyrimidine nucleoside phosphorylase; conditions: cited from earlier work
[9] = system: established cell line derived from a mouse; conditions: same molar concentration, in vitro; cited from earlier work
[10] = system: thymidine phosphorylase; assay: Inhibition of thymidine phosphorylase activity and enzymatic stability in small intestine; type: biochemical; conditions: rat and beagle small intestine
Description: as §1

[11] = biological target: T1, pyrimidine nucleoside phosphorylase; assay: Inhibition of pyrimidine nucleoside phosphorylase activity in rat small intestine homogenate (decomposition of 5-fluoro-2'-deoxyuridine); type: biochemical, SD-strain rat; conditions: inhibitor 0.025 mM; 0.09% w/v rat small intestine homogenate, pH 7.0, 37° C.
[12] = Inhibition of pyrimidine nucleoside phosphorylase activity in beagle small intestine homogenate (decomposition of 5-fluoro-2'-deoxyuridine); type: biochemical; conditions: dog; inhibitor 0.025 mM; 0.4% w/v beagle small intestine homogenate, pH 7.0, 37° C.
[13] = rat, small intestine homogenate, pH 7
[14] = inhibitor 0.025 mM, 0.09% w/v rat small intestine homogenate, pH 7.0, 37° C.
[15] = inhibitor 0.025 mM, 0.09% w/v rat small intestine homogenate, pH 7.0, 37° C., read-out: Inhibitory percentage
[16] = pH 7, read-out: Inhibitory percentage

T1 sequence (F7F0D5 1-312): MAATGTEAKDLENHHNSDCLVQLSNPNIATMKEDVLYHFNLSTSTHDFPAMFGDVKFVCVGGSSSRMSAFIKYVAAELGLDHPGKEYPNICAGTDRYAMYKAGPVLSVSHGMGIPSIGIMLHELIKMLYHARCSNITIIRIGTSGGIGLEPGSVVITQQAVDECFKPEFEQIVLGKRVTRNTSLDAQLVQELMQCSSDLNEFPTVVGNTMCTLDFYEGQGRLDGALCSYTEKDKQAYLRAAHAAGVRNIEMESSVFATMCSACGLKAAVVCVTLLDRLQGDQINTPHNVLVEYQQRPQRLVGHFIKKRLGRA

SMILES: O=c1[nH]c(=O)n(COCCO)cc1Br [1-[(2-hydroxyethoxy)methyl]-5-bromouracil]
Half-life of 5-fluoro-2'-deoxyuridine in presence of inhibitor ([1]; inhibitor 0.01 mM, 0.09% w/v rat small intestine homogenate, pH 7.0, 37° C.): 0.542 h
inhibition at 10 µM ([1]; inhibitor 0.01 mM, 0.09% w/v rat small intestine homogenate, pH 7.0, 37° C., read-out: Inhibitory percentage): 47.7%
half-life at 10 µM [1, 13]: > 16.7 h
half-life at 10 µM [2]: > 16.7 h
Half-life of 5-fluoro-2'-deoxyuridine in presence of inhibitor ([3]; inhibitor 0.01 mM): 1.04 h
Inhibitory percentage ([3]; inhibitor 0.01 mM): 55.5%

SMILES: Cc1cn(COCCO)c(=O)[nH]c1=O [1-[(2-hydroxyethoxy)methyl]-5-methyluracil]
Half-life of 5-fluoro-2'-deoxyuridine in presence of inhibitor [1, 14]: 1.677 h
inhibition at 25 µM [1, 15]: 83.1%
half-life at 25 µM [1, 13]: > 16.7 h
ILS ([4]; 200 mg/kg/one dose alone): 12%
half-life at 25 µM [2]: > 16.7 h
Half-life of 5-fluoro-2'-deoxyuridine in presence of inhibitor ([3]; inhibitor 0.025 mM): 1.42 h
Inhibitory percentage ([3]; inhibitor 0.025 mM): 67.3%

SMILES: CCCCCCCCCCCCCCCCCC(=O)OCCOCn1cc(C)c(=O)[nH]c1=O [1-[[2-(octadecanoyloxy)ethoxy]methyl]-5-methyluracil]
ILS ([4]; 450 mg/kg/one dose alone): 12%

SMILES: O=c1ccn([C@H]2C[C@H](O)[C@@H](CO)O2)c(=O)[nH]1 [Deoxyuridine, reference compound]
Half-life of 5-fluoro-2'-deoxyuridine in presence of inhibitor [1, 14]: 0.37 h
inhibition at 25 µM [1, 16]: 23.4%
half-life at 25 µM [1, 13]: 1.1 h
half-life at 25 µM [2]: 0.538 h
Half-life of 5-fluoro-2'-deoxyuridine in presence of inhibitor ([3]; inhibitor 0.025 mM): 0.508 h
Inhibitory percentage ([3]; inhibitor 0.025 mM): 8.8%

SMILES: Cc1cn([C@H]2C[C@H](O)[C@@H](CO)O2)c(=O)[nH]c1=O [Thymidine, reference compound]
inhibitory activity against thymidine phosphorylase (in words) [10]: more potenty inhibited by thymidine than by deoxyuridine
half-life at 25 µM [11]: 1.48 h
Half-life of 5-fluoro-2'-deoxyuridine in presence of inhibitor [1, 14]: 0.51 h
inhibition at 25 µM [1, 16]: 44.4%
half-life at 25 µM [12]: 0.45 h
Half-life of 5-fluoro-2'-deoxyuridine in presence of inhibitor ([3]; inhibitor 0.025 mM): 0.968 h
Inhibitory percentage ([3]; inhibitor 0.025 mM): 52.2%

Further lines, with some results ahead:

Half-life of 5-fluoro-2'-deoxyuridine in presence of inhibitor [1, 14]: 0.823 h
inhibition at 25 µM [1, 15]: 65.6%
half-life at 25 µM [1, 13]: > 16.7 h
half-life at 25 µM [2]: > 16.7 h
Half-life of 5-fluoro-2'-deoxyuridine in presence of inhibitor ([3]; inhibitor 0.025 mM): 0.78 h
Inhibitory percentage ([3]; inhibitor 0.025 mM): 40.6%
SMILES: O=c1[nH]c(=O)n(COCCO)cc1F [1-[(2-hydroxyethoxy)methyl]-5-fluorouracil]

Retention time (b) Acetonitrile:acetic acid (999:1) [5]: 3.15 min
Retention time (a) Acetonitrile:water (19:1) [5]: 3.53 min
SMILES: CCCCCCCCCCCCCCCC(=O)OCCOCn1cc(C)c(=O)[nH]c1=O [1-[[2-(Hexadecanoyloxy)-ethoxy]-methyl]-5-methyluracil]

Retention time [6]: 5.48 min
Hydrolysis rate constant [7]: 0.052 min.^-1
SMILES: CCCCCCCCCCCCCCCCCCCC(=O)OCCOCn1cc(C)c(=O)[nH]c1=O [1-[[2-(eicosanoyloxy)-ethoxy]-methyl]-5-methyluracil]

Retention time (b) Acetonitrile:acetic acid (999:1) [5]: 3.00 min
Retention time (a) Acetonitrile:water (19:1) [5]: 3.96 min
SMILES: CCCCCCCCCCCC(=O)OC[C@H]1O[C@@H](n2cc(F)c(=O)[nH]c2=O)C[C@@H]1OC(=O)CCCCCCCCCCC [3'5'-didodecanoyl-5-fluoro-2'-deoxyuridine]
ILS ([4]; 10 mg/kg/one dose alone): 0%
ILS ([4]; 30 mg/kg/one dose alone): 5%
ILS ([4]; 100 mg/kg/one dose alone): 15%
ILS ([4]; 300 mg/kg/one dose alone): 40%

Retention time [6]: 5.38 min
Hydrolysis rate constant [7]: 0.027 min.^-1
SMILES: CCCCCCCCCCCCCC(=O)OC[C@H]1O[C@@H](n2cc(F)c(=O)[nH]c2=O)C[C@@H]1OC(=O)CCCCCCCCCCCCC [3'5'-ditetradecanoyl-5-fluoro-2'-deoxyuridine]

Half-life of 5-fluoro-2'-deoxyuridine ([1]; rat, small intestine homogenate, 25 µM, pH 7): 0.283 h
Half-life of 5-fluoro-2'-deoxyuridine ([3]; dog, small intestine homogenate, 25 µM, pH 7): 0.463 h
SMILES: O=c1[nH]c(=O)n([C@H]2C[C@H](O)[C@@H](CO)O2)cc1F [5-Fluoro-2'-deoxyuridine, 5-fluoro-2'-deoxyuridine, reference compound]
half-life in blood (in words) ([8]; after administration in living bodies): shorter half-life in blood
decomposition by pyrimidine nucleoside phosphorylase (in words) ([8]; living bodies): rapidly decomposed
antitumor activity relative to 5-fluorouracil [9]: 100 fold
ILS ([4]; 10 mg/kg/one dose alone): 15%
ILS ([4]; 30 mg/kg/one dose alone): 10%
ILS ([4]; 100 mg/kg/one dose alone): 15%
ILS ([4]; 300 mg/kg/one dose alone): 10%

— patent publication US4916121A, “Antitumor composition comprising pyrimidine type nucleic acid derivative and 1-[(2-hydroxyethoxy)methyl]uracil derivative” (Teijin Limited, priority 1985, dated 1990)
